The test has as its system arteriovenous fistula (AVF). As to the kind of experiment: Treatment of an AVF with the active agent (NVS treatment). It counts as in vivo.

As for `NCCOCCOCCNc1ccc2c3c(cccc13)C(=O)N(CCOCCOCCN1C(=O)c3cccc4c(NCCOCCOCCN)ccc(c34)C1=O)C2=O` [Compound of Formula (I), 2,2′-((ethane-1,2-diylbis(oxy))bis(ethane-2,1-diyl))bis(6-((2-(2-(2-aminoethoxy)ethoxy)ethyl)amino)-1H-benzo[de]isoquinoline-1,3(2H)-dione)], the “AVF open lumen area” value was “significant increase” and the “area of neointimal hyperplasia” value was “without significantly affecting”.
